“And” between values parts separate entries of the source, which are not always exact repeats. Identical values can stand only once. Counter-ions that a name gives are not always drawn.
Legend:
[1] = biological target: baculovirus-expressed ALK (Homo sapiens, UniProt Q9UM73); assay: ALK kinase inhibition, TRF/ELISA; type: biochemical; conditions: read-out: ALK Potency
Experimental: Briefly, each 96-well plate was coated with 100 μL/well of 10 μg/mL substrate (GST-PLC-γ) in Tris-buffered saline (TBS). […] The reaction was initiated by adding enzyme (30 ng/mL ALK) and was allowed to proceed at 37° C. for 15 minutes. Detection of the phosphorylated product was performed by adding 100 μL/well of Eu-N1 labeled PT66 antibody (Perkin Elmer #AD0041). […] Data analysis was performed using ActivityBase (IDBS, Guilford, UK). IC50 values were calculated by plotting percent inhibition versus log10 of the concentration of compound and fitting to the nonlinear regression sigmoidal dose-response (variable slope) equation in XLFit (IDBS, Guilford, UK).

[2] = biological target: baculovirus-expressed JAK2 kinase (Homo sapiens, UniProt O60674); assay: biochemical; conditions: 0.2 μM ATP; read-out: JAK2 Potency
Experimental: Compounds were tested for their ability to inhibit the kinase activity of baculovirus-expressed JAK2 kinase using the time-resolved fluorescence (TRF) detection system. […] The plates were coated with 100 μL/well of 10 μg/mL Neutravidin (Pierce #31000, Rockford, Ill.) in TBS at 37° C. for 2 h, followed by 100 μL/well of 1 μg/mL 15-mer peptide substrate (biotinyl-amino-hexanoyl-[…]-amide, Infinity Biotech Research and Resource, Aston, Pa.) at 37° C. for 1 h. […] Enzyme (15 ng/mL JAK2) was added and the reaction was allowed to proceed at room temperature for 20 min. […] Inhibition data were analyzed using ActivityBase (IDBS, Guilford, UK). IC50 values were calculated by plotting percent inhibition versus log10 of the concentration of compound and fitting to the nonlinear regression sigmoidal dose-response (variable slope) equation in XLFit (IDBS, Guilford, UK).

Chain of baculovirus-expressed JAK2 kinase (O60674 whole entry): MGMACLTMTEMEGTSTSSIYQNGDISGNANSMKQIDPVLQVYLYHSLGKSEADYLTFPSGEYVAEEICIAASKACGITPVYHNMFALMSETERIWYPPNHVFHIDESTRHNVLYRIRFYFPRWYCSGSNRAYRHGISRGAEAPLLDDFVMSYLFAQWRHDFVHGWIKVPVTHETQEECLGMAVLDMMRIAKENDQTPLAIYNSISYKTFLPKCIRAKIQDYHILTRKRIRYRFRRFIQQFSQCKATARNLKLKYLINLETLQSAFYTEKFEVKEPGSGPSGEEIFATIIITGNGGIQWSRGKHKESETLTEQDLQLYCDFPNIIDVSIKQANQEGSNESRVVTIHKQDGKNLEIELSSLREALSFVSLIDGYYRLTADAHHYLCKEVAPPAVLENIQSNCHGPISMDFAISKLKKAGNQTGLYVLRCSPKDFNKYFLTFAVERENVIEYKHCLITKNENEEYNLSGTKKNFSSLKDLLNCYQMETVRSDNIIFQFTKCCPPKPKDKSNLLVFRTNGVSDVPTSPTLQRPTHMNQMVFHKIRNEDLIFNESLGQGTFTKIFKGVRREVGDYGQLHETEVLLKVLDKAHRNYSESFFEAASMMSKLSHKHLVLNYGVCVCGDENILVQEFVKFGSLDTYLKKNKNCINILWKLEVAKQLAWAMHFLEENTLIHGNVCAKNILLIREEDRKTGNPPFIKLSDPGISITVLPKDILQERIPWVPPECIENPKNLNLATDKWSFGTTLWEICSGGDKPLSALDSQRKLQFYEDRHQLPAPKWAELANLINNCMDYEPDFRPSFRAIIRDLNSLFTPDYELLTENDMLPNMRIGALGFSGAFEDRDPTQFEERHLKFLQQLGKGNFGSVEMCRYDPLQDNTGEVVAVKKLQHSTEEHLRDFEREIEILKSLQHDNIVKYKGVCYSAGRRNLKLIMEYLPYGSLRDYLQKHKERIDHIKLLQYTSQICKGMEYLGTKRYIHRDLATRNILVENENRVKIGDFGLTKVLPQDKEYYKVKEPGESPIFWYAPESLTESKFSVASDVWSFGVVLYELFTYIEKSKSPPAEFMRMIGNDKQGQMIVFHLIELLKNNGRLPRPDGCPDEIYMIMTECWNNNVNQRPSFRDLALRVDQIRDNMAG
Chain of baculovirus-expressed ALK (Q9UM73 19-1620): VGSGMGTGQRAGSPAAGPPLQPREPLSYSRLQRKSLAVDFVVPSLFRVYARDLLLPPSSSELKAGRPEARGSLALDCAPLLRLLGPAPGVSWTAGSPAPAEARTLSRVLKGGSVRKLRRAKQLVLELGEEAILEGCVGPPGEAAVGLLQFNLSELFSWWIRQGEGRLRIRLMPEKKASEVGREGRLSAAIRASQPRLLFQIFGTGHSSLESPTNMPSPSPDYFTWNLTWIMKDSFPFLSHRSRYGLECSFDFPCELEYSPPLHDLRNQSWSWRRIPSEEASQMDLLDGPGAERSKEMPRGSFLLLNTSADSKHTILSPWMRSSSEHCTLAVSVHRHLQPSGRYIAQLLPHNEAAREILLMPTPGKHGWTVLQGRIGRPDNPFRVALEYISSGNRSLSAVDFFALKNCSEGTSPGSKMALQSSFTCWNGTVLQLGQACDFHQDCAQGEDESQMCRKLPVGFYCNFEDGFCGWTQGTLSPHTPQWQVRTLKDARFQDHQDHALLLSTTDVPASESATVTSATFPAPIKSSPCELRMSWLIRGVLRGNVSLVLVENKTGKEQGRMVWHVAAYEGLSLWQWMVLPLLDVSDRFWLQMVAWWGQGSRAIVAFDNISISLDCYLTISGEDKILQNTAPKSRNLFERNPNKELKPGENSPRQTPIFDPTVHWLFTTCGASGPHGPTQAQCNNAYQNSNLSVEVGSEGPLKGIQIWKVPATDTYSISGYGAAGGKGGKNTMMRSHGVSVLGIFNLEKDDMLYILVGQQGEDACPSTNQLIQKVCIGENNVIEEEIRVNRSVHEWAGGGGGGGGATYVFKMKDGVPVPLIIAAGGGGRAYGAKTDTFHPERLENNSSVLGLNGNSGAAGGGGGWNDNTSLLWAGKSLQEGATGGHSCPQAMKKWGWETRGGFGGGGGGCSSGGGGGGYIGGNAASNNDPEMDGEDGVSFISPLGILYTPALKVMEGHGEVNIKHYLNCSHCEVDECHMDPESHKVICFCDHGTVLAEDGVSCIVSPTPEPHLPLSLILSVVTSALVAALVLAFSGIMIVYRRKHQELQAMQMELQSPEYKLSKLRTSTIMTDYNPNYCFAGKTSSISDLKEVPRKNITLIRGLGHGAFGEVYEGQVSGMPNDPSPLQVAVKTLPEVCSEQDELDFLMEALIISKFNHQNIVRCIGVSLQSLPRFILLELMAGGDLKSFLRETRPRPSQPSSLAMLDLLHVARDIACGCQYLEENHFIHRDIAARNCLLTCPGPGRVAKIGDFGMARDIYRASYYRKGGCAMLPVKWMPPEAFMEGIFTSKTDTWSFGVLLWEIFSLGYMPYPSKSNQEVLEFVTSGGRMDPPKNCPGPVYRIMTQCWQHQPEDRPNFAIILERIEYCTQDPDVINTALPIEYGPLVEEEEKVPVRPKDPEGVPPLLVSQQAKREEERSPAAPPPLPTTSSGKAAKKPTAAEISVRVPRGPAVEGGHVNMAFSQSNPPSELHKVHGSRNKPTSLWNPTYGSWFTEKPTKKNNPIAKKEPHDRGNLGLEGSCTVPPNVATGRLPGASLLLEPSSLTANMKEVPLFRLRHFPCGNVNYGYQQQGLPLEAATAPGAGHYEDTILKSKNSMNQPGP

SMILES | IC50 [1] [nM] | IC50 [2]
Cc1nn(C)c(C)c1-c1nc2c(N[C@H]3[C@@H](C(N)=O)[C@@H]4C=C[C@H]3C4)c(Br)cnc2[nH]1 [Compound CLII, (1S,2S,3R,4R)-3-[6-Bromo-2-(1,3,5-trimethyl-1H-pyrazol-4-yl)-3H-imidazo[4,5-b]pyridin-7-ylamino]-bicyclo[2.2.1]hept-5-ene-2-carboxylic acid amide] | < 100 | < 100 nM
COc1cc(N2CCOCC2)ccc1-c1nc2c(N3C[C@@H]4C[C@H]3CN4C[C@H](C)O)c(Cl)cnc2[nH]1 [Compound XXXIX, (S)-1-[(1S,4S)-5-[6-Chloro-2-(methoxy-4-morpholin-4-yl-phenyl)-3H-imidazo[4,5-b]pyridine-7-yl]-2,5-diaza-bicyclo[2.2.1]hept-2-yl]-propan-2-ol] | > 10000 | > 10000 nM
CC(O)CN1CCC(Oc2ccc(-c3nc4c(N[C@H]5[C@@H](C(N)=O)[C@@H]6C=C[C@H]5C6)c(Cl)cnc4[nH]3)cc2)CC1 (stereo partly drawn) [Compound CCLII, (1S,2S,3R,4R)-3-(6-chloro-2-(4-(1-(2-hydroxypropyl)piperidin-4-yloxy)phenyl)-3H-imidazo[4,5-b]pyridin-7-ylamino)bicyclo[2.2.1]hept-5-ene-2-carboxamide] | < 100 | < 100 nM
COc1cc(CN2CCOCC2)ccc1-c1nc2c(N[C@H]3[C@@H](CO)[C@@H]4C=C[C@H]3C4)c(Cl)cnc2[nH]1 [Compound LII, {(diexo)-3-[6-Chloro-2-(2-methoxy-4-morpholin-4-ylmethylphenyl)-3H-imidazo[4,5-b]pyridine-7-ylamino]-bicyclo[2.2.1]hept-5-en-2-yl}-methanol] | < 100 | 100 to 1000 nM
CC(O)CN1CCC(Oc2cccc(-c3nc4c(N[C@H]5[C@@H](C(N)=O)[C@@H]6C=C[C@H]5C6)c(Cl)cnc4[nH]3)c2)CC1 (stereo partly drawn) [Compound CCLI, (1S,2S,3R,4R)-3-(6-chloro-2-(3-(1-(2-hydroxypropyl)piperidin-4-yloxy)phenyl)-3H-imidazo[4,5-b]pyridine-7-ylamino)pyridin[2.2.1]hept-5-ene-2-carboxamide] | < 100 | < 100 nM
CCNC(=O)N1CCC(n2cc(-c3nc4c(N[C@H]5[C@@H](C(N)=O)[C@@H]6C=C[C@H]5C6)c(Cl)cnc4[nH]3)cn2)CC1 [Compound LXII, 4-{4-[7-((1R,2R,3S,4S)-3-Carbamoyl-bicyclo[2.2.1]hept-5-ene-2-ylamino)-6-chloro-3H-imidazo[4,5-b]pyridine-2-yl]-pyrazol-1-yl)-piperidine-1-carboxylic acid ethylamide] | < 100 | < 100 nM
COc1cc(N2CCN(C)CC2)ccc1-c1nc2c(N[C@H]3[C@@H](C(=O)N(C)C)[C@@H]4C=C[C@H]3C4)c(Cl)cnc2[nH]1 [Compound CXCVII, (1S,2S,3R,4R)-3-(6-chloro-2-(2-methoxy-4-(4-methylpiperazin-1-yl)phenyl)-3H-imidazo[4,5-b]pyridin-7-ylamino)-N,N-dimethylbicyclo[2.2.1]hept-5-ene-2-carboxamide] | < 100 | 100 to 1000 nM
C[C@H](O)CN1CCC(n2cc(-c3nc4c(N[C@H]5[C@@H](C(N)=O)[C@@H]6C=C[C@H]5C6)c(Cl)cnc4[nH]3)cn2)CC1 [Compound LIX, (1S,2S,3R,4R)-3-(6-Chloro-2-{1-[1((S)-2-hydroxypropyl)-piperidin-4-yl]-1H-pyrazol-4-yl}-3H-imidazo[4,5-b]pyridine-7-ylamino)-bicyclo[2.2.1]hept-5-ene-2-carboxylic acid amide] | < 100 | < 100 nM
NC(=O)[C@@H]1[C@H](Nc2c(Cl)cnc3[nH]c(-c4cccc(OCCN5CCOCC5)c4)nc23)[C@H]2C=C[C@@H]1C2 [Compound CCXXXVII, (1S,2S,3R,4R)-3-(6-chloro-2-(3-(2-morpholinoethoxy)phenyl)-3H-imidazo[4,5-b]pyridine-7-ylamino)pyridin[2.2.1]hept-5-ene-2-carboxamide] | < 100 | < 100 nM and 100 to 1000 nM
NC(=O)[C@@H]1[C@H](Nc2c(Cl)cnc3[nH]c(C4CCCNC4)nc23)[C@H]2C=C[C@@H]1C2 (single isomer, unassigned) [XIII] | > 10000 | > 10000 nM
C[C@@H](O)CN1CCC(n2cc(-c3nc4c(N[C@H]5[C@@H](C(N)=O)[C@@H]6C=C[C@H]5C6)c(Cl)cnc4[nH]3)cn2)CC1 [Compound LVIII, (1S,2S,3R,4R)-3-(6-Chloro-2-{1-[1-((R)-2-hydroxypropyl)-piperidin-4-yl]-1H-pyrazol-4-yl}-3H-imidazo[4,5-b]pyridine-7-ylamino)-bicyclo[2.2.1]hept-5-ene-2-carboxylic acid amide] | < 100 | < 100 nM
NC(=O)[C@@H]1[C@H](Nc2c(Cl)cnc3[nH]c(-c4ccc(O)cc4)nc23)[C@H]2C=C[C@@H]1C2 [Compound CCXXXIV, (1S,2S,3R,4R)-3-(6-chloro-2-(4-hydroxyphenyl)-3H-imidazo[4,5-b]pyridin-7-ylamino)bicyclo[2.2.1]hept-5-ene-2-carboxamide] | 100 to 1000 | < 100 nM
CN(C)c1nc(Cl)c(-c2nc3c(N[C@H]4[C@@H](C(N)=O)[C@@H]5C=C[C@H]4C5)c(Cl)cnc3[nH]2)s1 [Compound CLIV, (1S,2S,3R,4R)-3-[6-Chloro-2-(4-chloro-2-dimethylamino-thiazol-5-yl)-3H-imidazo[4,5-b]pyridin-7-ylamino]-bicyclo[2.2.1]hept-5-ene-2-carboxylic acid amide] | < 100 | < 100 nM
NC(=O)[C@@H]1[C@H](Nc2c(Cl)cnc3[nH]c(-c4ccccc4Cl)nc23)[C@H]2C=C[C@@H]1C2 [Compound CXLVIII, (1S,2S,3R,4R)-3-[6-Chloro-2-(2-chloro-phenyl)-3H-imidazo[4,5-b]pyridin-7-ylamino]-bicyclo[2.2.1]hept-5-ene-2-carboxylic acid amide] | 100 to 1000 | < 100 nM
NC(=O)[C@@H]1[C@H](Nc2c(Cl)cnc3[nH]c(-c4cccc(CN5CCOCC5)c4)nc23)[C@H]2C=C[C@@H]1C2 [Compound XVI, (1S,2S,3R,4R)-3-[6-Chloro-2-(3-morpholin-4-ylmethyl-phenyl)-3H-imidazo[4,5-b]pyridin-7-ylamino]-bicyclo[2.2.1]hept-5-ene-2-carboxylic acid amide trifluoroacetic acid salt] | < 100 | < 100 nM
N#Cc1cccc(-c2nc3c(N[C@H]4[C@@H](C(N)=O)[C@@H]5C=C[C@H]4C5)c(Br)cnc3[nH]2)c1 [Compound CXLVI, (1S,2S,3R,4R)-3-[6-Bromo-2-(3-cyano-phenyl)-3H-imidazo[4,5-b]pyridin-7-ylamino]-bicyclo[2.2.1]hept-5-ene-2-carboxylic acid amide] | 100 to 1000 | < 100 nM
CC(C)NC(=O)[C@@H]1[C@H](Nc2c(Cl)cnc3[nH]c(-c4sc(N5CCOCC5)nc4Cl)nc23)[C@H]2C=C[C@@H]1C2 [Compound CLXIII, (1S,2S,3R,4R)-3-[6-Chloro-2-(4-chloro-2-morpholin-4-yl-thiazol-5-yl)-3H-imidazo[4,5-b]pyridin-7-ylamino]-bicyclo[2.2.1]hept-5-ene-2-carboxylic acid isopropylamide] | < 100 | > 10000 nM
CN(C)C(=O)[C@@H]1[C@H](Nc2c(Cl)cnc3[nH]c(-c4sc(N5CCCC5)nc4Cl)nc23)[C@H]2C=C[C@@H]1C2 [Compound CLXIV, (1S,2S,3R,4R)-3-[6-Chloro-2-(4-chloro-2-pyrrolidin-1-yl-thiazol-5-yl)-3H-imidazo[4,5-b]pyridin-7-ylamino]-bicyclo[2.2.1]hept-5-ene-2-carboxylic acid dimethylamide] | < 100 | < 100 nM
NC(=O)[C@@H]1[C@H](Nc2c(Br)cnc3[nH]c(-c4ccnc(N5CCOCC5)c4)nc23)[C@H]2C=C[C@@H]1C2 [Compound CXXXVI, (1S,2S,3R,4R)-3-[6-Bromo-2-(2-morpholin-4-yl-pyridin-4-yl)-3H-imidazo[4,5-b]pyridin-7-ylamino]-bicyclo[2.2.1]hept-5-ene-2-carboxylic acid amide] | 100 to 1000 | < 100 nM
NC(=O)CN1CCC(n2cc(-c3nc4c(N[C@H]5[C@@H](C(N)=O)[C@@H]6C=C[C@H]5C6)c(Cl)cnc4[nH]3)cn2)CC1 [Compound LXVI, (1S,2S,3R,4R)-3-{2-[1-(1-Carbamoylmethyl-piperidin-4-yl)-1H-pyrazol-4-yl]-6-chloro-3H-imidazo[4,5-b]pyridine-7-ylamino}-bicyclo[2.2.1]hept-5-ene-2-carboxylic acid amide, trifluoroacetic acid salt] | 100 to 1000 | < 100 nM
NC(=O)[C@@H]1[C@H](Nc2c(Br)cnc3[nH]c(-c4ccc(CN5CCOCC5)cc4)nc23)[C@H]2C=C[C@@H]1C2 [Compound LXXX, (1S,2S,3R,4R)-3-[6-Bromo-2-(4-morpholin-4-ylmethyl-phenyl)-3H-imidazo[4,5-b]pyridin-7-ylamino]-bicyclo[2.2.1]hept-5-ene-2-carboxylic acid amide] | < 100 | < 100 nM

— US9238656B2, “Imidazo[4,5-b]pyridine derivatives as ALK and JAK modulators for the treatment of proliferative disorders” (priority 2012, dated 2016)
